Laboratory results from US20230390276A1, “TREATMENT OF AUTOIMMUNE DISEASES WITH A DIHYDROOROTATE HEHYDROGENASE (DHODH) INHIBITOR” (Aslan Pharmaceuticals Pte. Ltd., priority 2020, published 2023).

Legend:
[1] = Haematological cell count in EAE rats; type: in vivo, Male Lewis rats; settings: for number of neutrophils: 24 hours after last administration, no statistically significant difference versus vehicle
Description: At the end of the assay, 24 h after last administration, blood samples from the retro-orbital plexus were obtained from all animals under light anaesthesia. Samples were used to determine complete blood cell count (XT-2000i/XT-1800i, Sysmex Corporation). Absolute values were reported for all cell types.

EAE Lewis rat model [2] = assay: Histology of the CNS in EAE rats; type: in vivo, Male Lewis rats; settings: highest doses tested; compared to vehicle-treated animals
Description: At the end of the experiment, animals were killed by exsanguination and necropsies were performed in a blind manner. The spinal cords (CNS; spinal cord, medulla oblonga, cerebellum) of EAE animals were obtained, fixed in 4% formalin in PBS, and embedded in paraffin. Six μm-thickness sections were prepared and then stained with hematoxylin and eosin. The histological score was evaluated as follows: • 0: no lesions; • 1: solitary lesions with cell infiltrates of low cellular density in the entire section; • 2: a few lesions with moderate cell infiltration in each of a few fields; • 3: many lesions in almost all fields with massive cell infiltration and accompanying edema (Kataoka, 2005).

[3] = test system: rheumatoid arthritis (RA) Adjuvant-Induced Arthritis (AIA) model; assay: X-ray (radiological) score of paws in AIA model; type: in vivo, Male Wistar rats; settings: 3 mg/kg; 2 to 3 independent experiments
Description: Rats were administered the CFA suspension every day in the morning for 10 consecutive days. Body weight was measured every day and paw volumes every other day. On day 11 post-treatment (24 hrs after last administration), the rats were anesthetised, blood samples were collected from their retroorbital plexus to determine cell counts, and then sacrificed. Hind paws were excised to perform X-ray analysis and a score of radiological damage was performed by a scientist unaware in a blind manner. The radiological score is a composite of 5 different parameters evaluated from the X-ray images of every individual paw. The 5 parameters are: bone demineralisation, periostitis, narrowing of the joint space, cystic degeneration, and inflammation of the soft tissues. For each parameter, a value of 0-4 was assigned, which is proportional to the severity observed. The sum of the scores of the 5 parameters provides the radiological score for each animal. The effect of a treatment on the inhibition of the radiological score was measured by calculating the % inhibition of the radiological score of every animal belonging to a treatment group vs the mean of the vehicle treated group. In the case where several experiments were conducted, the values provided are the mean of the individual experiments and the SEM.

EAE Lewis rat model [4] = assay: EAE Lewis rat model, clinical score AUC (Example 2); type: in vivo, Male Lewis rats
Description: For the induction of EAE, guinea pig myelin basic protein (MBP) (Sigma, M2295) suspended in 0.9% saline solution at a concentration of 2 mg/ml was used. The solution was emulsified with an equal volume of Freund's complete adjuvant (Sigma, F5881) containing 4 mg/ml of heat-inactivated Mycobacterium tuberculosis H37Ra (Difeo Laboratories, Ref. 231141). Male Lewis rats were immunized with 0.1 ml of emulsion by subcutaneous injection into the right and left hind footpads with the emulsion containing MBP at 100 μg/rat.
Individual animals were examined daily for clinical signs of neurological deficits scored on a 0 to 5 scale, as follows:
Clinical signs of the disease were observed on day 8-9 after induction.
As disease progressed, animals with a score of 4 were sacrificed if disability indicated little chance of recovery, in accordance with animal welfare standards. Mortality due to sacrifice or spontaneous EAE-related death was recorded as a 5 on the given day. This death score continued to be included in the clinical assessment, but no body weight measurements could be carried forward.
LAS 186323 (ASLAN003), positive control T and positive control F were freshly prepared every day and suspended in 0.5% Methylcellulose and 0.1% Tween 80 in water, at the specified doses and administered by oral gavage in a volume of 10 ml/kg.
Evaluation of disability was performed on a daily basis and a clinical score given to each animal, as described. The area under the curve (AUC) of the clinical score was generated for each animal from the data recorded along the experiment. The percentage of inhibition of the AUC was calculated for every animal versus the mean of the AUC of the vehicle group. The mean percentage of inhibition per treatment and dose was calculated.

DSS induced IBD model = assay: Dextran sulfate sodium (DSS) induced inflammatory bowel disease (IBD) mouse model; type: in vivo, Male C57BL/6 mice
Description: Male C57BL/6 mice aged 6-7 weeks were procured from Shanghai Lingchang Bio Tech Co. Ltd, China. Animals were randomized into groups based on the body weight: • Group 01: Purified water, ad libitum, Day 1-8; Vehicle, 5 mL/kg, P0, QD, Day 0-9, n=6 • Group 02: 3% DSS in water, ad libitum, Day 1-8; Vehicle, 5 mL/kg, P0, QD, Day 0-9, n=8 • Group 03: 3% DSS in water, ad libitum, Day 1-8; positive control V, 20 mg/kg, P0, QD, Day 0-9, n=8 • Group 04: 3% DSS in water, ad libitum, Day 1-8; ASLAN003, low dose, P0, QD, Day 0-9, n=8a • Group 05: 3% DSS in water, ad libitum, Day 1-8; ASLAN003, high dose, P0, QD, Day 0-9, n=8 • Abbreviations: QD=Once daily; PO=Oral gavage. • Study duration: 3 weeks of acclimation phase, and 10 days of treatment phase starting from Day 0 (Day 0-10). • Colitis model induction: To induce acute experimental colitis, mice in Groups 02-05 were provided ad libitum access to 3% DSS in purified water for 7 days (Day 1-7), followed by purified water for 2 days (Day 9-10). The drinking water containing DSS was changed once in two days. Mice in Group 01 was kept on purified water as a control, during Day 1-7. • In-life parameters measured: • Water and food consumption was monitored once daily during Day 0-10. • Body weight was measured once daily during Day 0-10, with twice daily clinical monitoring. • Stool observation as conducted once daily during Day 0-10. A disease activity index (DAI) was determined to quantify induction of colitis. • Intestinal permeability was assessed on Days 0 and 9. • Faeces was collected for lipocalin-2 detection on Days 0, 4, 8 and 10. • Study Termination: The mice were sacrificed on Day 10, and the following was performed on the sacrificed animals: • The entire colon (from caecum to anus) was collected and its length from ileocecal valve to anus was measured. • One photo of the entire colon for each mouse was taken. • The colon was opened along the mesenteric border, rinsed with saline, blotted dry and its weight was measured. • The colon was processed as ‘spiral Swiss Rolls’, fixed in 10% neutral-buffered formalin for 24-48 hours, and embedded in paraffin (one block per mouse) for hematoxylin-eosin (H&E) staining and histopathological evaluation. • The spleen was dissected, its tissue weight measured and recorded, and then discarded.

[5] = test system: multiple sclerosis experimental autoimmune encephalomyelitis (EAE) model; assay: EAE model of multiple sclerosis, clinical score (Example 1); type: in vivo; settings: oral 1, 3, 10 or 15 mg/kg per day from Day 8 after disease induction
From the text: Experimental autoimmune encephalomyelitis (EAE) is a well-studied animal model of demyelinating diseases, such as human multiple sclerosis (MS). EAE is induced by injecting susceptible animals with purified myelin components, central nervous system (CNS) extract, or synthesized specific peptides emulsified in an adjuvant. The peptides are for example derived from myelin basic protein (MBP), myelin oligodendrocyte glycoprotein (MOG) or proteolipid protein (PLP). To investigate the effect of ASLAN003 on multiple sclerosis, ASLAN003 was administered orally to the EAE model at doses of 1 mg/kg, 3 mg/kg, 10 mg/kg or 15 mg/kg per day, starting from Day 8 after disease induction. A vehicle control was included.

[6] = WBC and platelet counts in AIA model; type: in vivo, Male Wistar rats; settings: arthritic rats, 24 hrs after last administration
Description: Rats were administered the CFA suspension every day in the morning for 10 consecutive days. Body weight was measured every day and paw volumes every other day. On day 11 post-treatment (24 hrs after last administration), the rats were anesthetised, blood samples were collected from their retroorbital plexus to determine cell counts, and then sacrificed. Hind paws were excised to perform X-ray analysis and a score of radiological damage was performed by a scientist unaware in a blind manner.

[7] = test system: rheumatoid arthritis (RA) Adjuvant-Induced Arthritis (AIA) model; assay: Adjuvant-induced arthritis (AIA) model, paw inflammation AUC; type: in vivo, Male Wistar rats; settings: for % Inhibition of the AUC (mean ± SEM): vs mean of vehicle

COc1cccc(-c2cc(F)c(Nc3ncccc3C(=O)O)c(F)c2)c1 [ASLAN003, 2-(3,5-difluoro-3′-methoxybiphenyl-4-ylamino) nicotinic acid]
number of neutrophils ([1]; 10 mg/kg): not at 10 mg/kg | number of neutrophils ([1]; 3 and 15 mg/kg): reduction in the number of neutrophils | blood cell count ([1]; once a day oral, 1-15 mg/kg): did not have a significant effect | CNS histological score (microscopic CNS lesions) (EAE Lewis rat model [2]): profound improvement in the microscopic CNS lesions | X-ray score (mean ± SEM) [3]: 2.16 ± 0.25 | % AUC inhibition Mean (SEM) of clinical score (EAE Lewis rat model [4]; 1 mg/kg oral daily): 41.1 (13.34) % | % AUC inhibition Mean (SEM) of clinical score (EAE Lewis rat model [4]; 3 mg/kg oral daily): 44.4 (10.79) % | % AUC inhibition Mean (SEM) of clinical score (EAE Lewis rat model [4]; 10 mg/kg oral daily): 65.1 (9.02) % | % AUC inhibition Mean (SEM) of clinical score (EAE Lewis rat model [4]; 15 mg/kg oral daily): 84.4 (4.94) % | ED50 (clinical score AUC inhibition) (EAE Lewis rat model [4]; calculated by linear regression): 2.7 mg/kg/day | stool consistency (DSS induced IBD model; 75 mg/kg PO QD (group 5), Days 2 to 9): best overall stool consistency | spleen weight (DSS induced IBD model; 75 mg/kg PO QD (group 5), end of study): most similar to the control group 1 | Disease Activity Index (DAI) (DSS induced IBD model; 75 mg/kg PO QD (group 5), over the 10 days): lower overall increase in DAI | bloody stools (DSS induced IBD model; 75 mg/kg PO QD (group 5), over the course of the study): lowest incidence of bloody stools | colon weight/length (DSS induced IBD model; 25 and 75 mg/kg PO QD (groups 4 and 5), end of study, vs Vehicle group 2): fairly similar | lipocalin in faeces (intestinal inflammation) (DSS induced IBD model; 25 and 75 mg/kg PO QD (groups 4 and 5), vs vehicle treated group 2): less intestinal inflammation | loss in body weight (DSS induced IBD model; 25 and 75 mg/kg PO QD Day 0-9 (groups 4 and 5), vs DSS induced vehicle group 2): similar | clinical score compared to the vehicle control [5]: significantly reduced clinical score | Platelets ([6]; 1 mg/kg): 1418 ± 180 ×10^3/μl | White blood cells ([6]; 1 mg/kg): 20.6 ± 0 ×10^3/μl | Platelets ([6]; 3 mg/kg): 1180 ± 45.9 ×10^3/μl | White blood cells ([6]; 3 mg/kg): 16.2 ± 0.86 ×10^3/μl | AUC of right paw inflammation (mean ± SEM) ([7]; 1 mg/kg oral daily, 2 to 5 independent experiments): 9.11 ± 3.14 | % Inhibition of the AUC (mean ± SEM) ([7]; 1 mg/kg oral daily): 32.76 ± 22.8% | % Inhibition of the AUC (mean ± SEM) ([7]; 3 mg/kg oral daily): 53.09 ± 2.4% | % Inhibition of the AUC (mean ± SEM) ([7]; 10 mg/kg oral daily): 64.49 ± 4.6% | ED50 ([7]; Rattus norvegicus, from 2 to 5 independent experiments, read-out: ED50 (mean % reduction in paw volume)): 4.6 mg/kg
